{"source": "patent US20210230134A1", "about": "“VITAMIN E DERIVATIVES AND THEIR USE AS MULTI-SCALE IMAGING AGENTS” (EXACT DELIVERY INC., priority 2018, published 2021)", "key": {"[1]": {"target": "T1, α-TTP (α-tocopherol transfer protein) (Homo sapiens, UniProt P49638)", "T1 sequence (P49638 1-278)": "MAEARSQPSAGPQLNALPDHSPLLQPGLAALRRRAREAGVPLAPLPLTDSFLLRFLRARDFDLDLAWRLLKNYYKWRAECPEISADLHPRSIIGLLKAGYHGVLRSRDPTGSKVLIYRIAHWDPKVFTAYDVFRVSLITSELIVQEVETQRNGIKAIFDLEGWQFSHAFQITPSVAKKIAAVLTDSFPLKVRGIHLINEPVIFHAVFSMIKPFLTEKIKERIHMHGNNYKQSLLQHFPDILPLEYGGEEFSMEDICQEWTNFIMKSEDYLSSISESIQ", "assay": "Competitive displacement of TBtoc from pre-incubated complex with α-TTP", "type": "binding", "conditions": "0.4 μM TBtoc pre-incubated with 0.4 μM α-TTP; competitor in dioxane; TKE buffer", "procedure": "When α-TTP is pre-incubated with TBtoc, competitive assays are possible by the incremental addition of a specific ligand such as natural α-tocopherol. Cholesterol served as a negative control (FIG. 5). About 57% of the bound fluorescence could be competed of α-TTP by α-tocopherol, whereas only about 8% was lost with cholesterol."}, "[2]": {"test_system": "mouse embryonic fibroblasts (MEFs)", "assay": "MTT tetrazolium reduction viability assay, MEFs", "type": "cell-based", "conditions": "24 h; for viability (formazan absorbance at 570 nm, MTT): 1 nM to 1 mM, vs 0.1% DMSO vehicle", "procedure": "(§1) C2C12 mouse myoblasts and mouse embryonic fibroblasts (MEFs) were cultured in DMEM supplemented with 10% (v/v) FBS, 4500 mg/L glucose, 4 mM L-glutamine, 1 mM sodium pyruvate, 2% (v/v) MEM nonessential amino acid solution, and penicillin (50 I.U./mL)/streptomycin (50 μg/mL) solution (complete media). Cells were cultured in a humidified 5% CO2 atmosphere within a Thermo Forma Series II water-jacketed CO2 incubator maintained at 37° C. Cells were transferred to fresh 96- or 6-well plates (2,000 cells/well & 60,000 cells/well, respectively) in the evening prior to commencing tocopherol treatments.\n(§2) Each tocopherol was dissolved in sterile 100% DMSO to yield a 1 M stock solution. Less concentrated stock solutions were subsequently prepared using ten-fold serial dilutions. All tocopherol solutions were stored at −20° C. To treat cultured cells, media was replaced with complete media containing freshly-added tocopherol; the final amount of vehicle (DMSO) for all concentrations tested was 0.1% (v/v).\n(§3) Media was discarded, wells were washed once with phenol red-free complete culture media, and 100 μL/well phenol red-free complete culture media containing 0.45 mg/mL MTT was added. Two hours later, solubilization solution [40% (v/v) dimethylformamide, 2% (v/v) glacial acetic acid, 16% (w/v) sodium dodecyl sulfate, pH 4.7] was added (100 μL/well) and well contents were gently mixed by re-suspension to dissolve the formazan precipitate. Plates were incubated at room temperature in darkness for 2 h before recording absorbance at 570 nm using a Bio-Tek PowerWave Microplate UV-Vis spectrophotometer (Winooski, Vt., USA). For each plate, background signal averaged from cell-free wells containing vehicle treatments was subtracted\nas §3, with “subtracted.” for “subtracted”"}, "C2C12 mouse myoblasts": {"test_system": "C2C12 mouse myoblasts", "assay": "MTT tetrazolium reduction viability assay, C2C12 myoblasts", "type": "cell-based", "conditions": "24 h; for viability (formazan absorbance at 570 nm, MTT): 1 nM to 1 mM, vs 0.1% DMSO vehicle", "procedure": "as §1, §2, §3\nas §3, with “subtracted.” for “subtracted”"}}, "data": [{"smiles": "Cc1c(C)c2c(c(C)c1O)CC[C@@](C)(CCC[C@H](C)CCC[C@H](C)CCCC(C)C)O2", "note": "[α-tocopherol, reference compound]", "values": [{"measurement": "bound fluorescence competed off α-TTP", "setting": "[1]", "value": "About 57%"}, {"measurement": "viability (formazan absorbance at 570 nm, MTT)", "setting": "[2]", "value": "no sensitivity"}, {"measurement": "viability (formazan absorbance at 570 nm, MTT)", "setting": "C2C12 mouse myoblasts", "value": "no sensitivity"}]}, {"smiles": "Cc1c(C)c2c(c(C)c1I)CC[C@@](C)(CCCC(C)CCCC(C)CCCC(C)C)O2", "note": "(stereo partly drawn) [I-Toc, (2R)-6-iodo-2,5,7,8-tetramethyl-2-(4.8.12-trimethyl-tridecyl)-chroman]", "values": [{"measurement": "viability (formazan absorbance at 570 nm, MTT)", "setting": "[2]", "value": "no negative sensitivity"}, {"measurement": "viability (formazan absorbance at 570 nm, MTT)", "setting": "C2C12 mouse myoblasts", "value": "no negative sensitivity"}]}, {"smiles": "CC(C)CCC[C@@H](C)[C@H]1CC[C@H]2[C@@H]3CC=C4C[C@@H](O)CC[C@]4(C)[C@H]3CC[C@]12C", "note": "[cholesterol]", "values": [{"measurement": "bound fluorescence competed off α-TTP", "setting": "[1]", "value": "about 8%"}]}, {"smiles": "Cc1c(C)c2c(c(C)c1[19F])CC[C@@](C)(CCC[C@H](C)CCC[C@H](C)CCCC(C)C)O2", "note": "[F-Toc]", "values": [{"measurement": "viability (formazan absorbance at 570 nm, MTT)", "setting": "[2]", "value": "no sensitivity"}, {"measurement": "cytotoxic concentration (no cytotoxicity up to stated concentration)", "setting": "[2]; MTT", "value": "> 1", "unit": "mM"}, {"measurement": "viability (formazan absorbance at 570 nm, MTT)", "setting": "C2C12 mouse myoblasts", "value": "no sensitivity"}, {"measurement": "cytotoxic concentration (no cytotoxicity up to stated concentration)", "setting": "C2C12 mouse myoblasts; MTT", "value": "> 1", "unit": "mM"}]}]}
